Results: ChEMBL document CHEMBL5046285, “Probing Fluorinated Motifs onto Dual AChE-MAO B Inhibitors: Rational Design, Synthesis, Biological Evaluation, and Early-ADME Studies” (J Med Chem, 2022)
pIC50: −log10 of the molar value. Converted amounts (≈) assume the structure as drawn.

molecular target: Cholinesterase (Equus caballus) (UniProt P81908); test: Inhibition of horse serum BChE at 10 uM by Ellman's spectrophotometric assay; assay type: cell-free; settings: not given
Sequence (P81908 whole entry): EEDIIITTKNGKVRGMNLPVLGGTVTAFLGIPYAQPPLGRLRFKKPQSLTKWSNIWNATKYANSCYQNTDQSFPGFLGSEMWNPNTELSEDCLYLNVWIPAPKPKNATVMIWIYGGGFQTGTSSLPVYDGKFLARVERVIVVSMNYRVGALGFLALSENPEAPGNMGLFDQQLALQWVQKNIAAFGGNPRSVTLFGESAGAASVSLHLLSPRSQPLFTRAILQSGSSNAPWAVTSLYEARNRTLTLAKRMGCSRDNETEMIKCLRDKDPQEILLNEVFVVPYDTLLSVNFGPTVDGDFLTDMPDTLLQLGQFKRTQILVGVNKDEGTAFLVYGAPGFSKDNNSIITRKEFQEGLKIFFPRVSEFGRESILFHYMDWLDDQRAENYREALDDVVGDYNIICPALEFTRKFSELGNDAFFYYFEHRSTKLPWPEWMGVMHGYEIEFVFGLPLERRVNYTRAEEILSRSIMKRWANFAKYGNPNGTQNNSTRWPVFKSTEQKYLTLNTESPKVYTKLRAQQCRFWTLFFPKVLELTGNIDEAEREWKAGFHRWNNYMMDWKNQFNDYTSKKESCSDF

Compound	inhibition [%]
Cc1c(C)c2ccc(OCC3CCN(Cc4cccc(C(F)(F)F)c4)CC3)cc2oc1=O	35
Cc1c(C)c2ccc(OCC3CCN(CCCC(F)F)CC3)cc2oc1=O	8
Cc1c(C)c2ccc(OCCCN(Cc3cccc(F)c3)C(C)C)cc2oc1=O	22
CN(CCCO)Cc1ccc(COc2ccc3c(CO)cc(=O)oc3c2)cc1	27

molecular target: T1, MAO-A (Homo sapiens, UniProt P21397); test: in vitro; settings: recombinant MAO-A expressed in supersomes, probe kynuramine
T1 sequence (P21397 whole entry): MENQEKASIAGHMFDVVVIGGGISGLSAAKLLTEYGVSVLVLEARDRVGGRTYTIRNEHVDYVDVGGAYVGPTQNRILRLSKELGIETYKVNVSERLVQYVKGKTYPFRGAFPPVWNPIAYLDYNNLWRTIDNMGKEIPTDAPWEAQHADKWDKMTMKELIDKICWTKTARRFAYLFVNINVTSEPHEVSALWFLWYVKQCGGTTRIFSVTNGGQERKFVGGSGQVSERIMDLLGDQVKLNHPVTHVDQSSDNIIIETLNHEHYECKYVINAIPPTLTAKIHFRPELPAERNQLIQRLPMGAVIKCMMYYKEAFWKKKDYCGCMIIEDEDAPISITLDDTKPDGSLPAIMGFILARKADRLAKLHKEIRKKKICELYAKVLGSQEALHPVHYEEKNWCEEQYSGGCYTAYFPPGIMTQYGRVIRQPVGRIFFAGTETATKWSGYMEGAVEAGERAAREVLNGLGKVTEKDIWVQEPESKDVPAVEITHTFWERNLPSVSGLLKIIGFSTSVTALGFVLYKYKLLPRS

Compound	inhibition at 10 µM [%]
Cc1c(C)c2ccc(OCC3CCN(CCCC(F)F)CC3)cc2oc1=O	40
CN(CCCO)Cc1ccc(COc2ccc3c(CO)cc(=O)oc3c2)cc1	13

tested on: not listed separately; test: Microsomal stability in mouse liver microsomes assessed as half life at 0.5 uM incubated upto 30 mins in presence of NADPH by LC/MS/MS analysis; assay type: ADME, Microsome; settings: not given; call rule not given here

Compound	half-life at 0.5 µM [min]
Cc1c(C)c2ccc(OCC3CCN(Cc4cccc(C(F)(F)F)c4)CC3)cc2oc1=O	9.5
Cc1c(C)c2ccc(OCC3CCN(CCCC(F)F)CC3)cc2oc1=O	11.9

tested on: not listed separately; test: Effective permeability of the compound in PBS buffer at pH 7.4 by PAMPA-BBB assay; assay type: ADME; settings: read-out: Peff

Compound	Papp [×10⁻⁶ cm/s]
Cc1c(C)c2ccc(OCC3CCN(CCCC(F)F)CC3)cc2oc1=O	10.8
CN(CCCO)Cc1ccc(COc2ccc3c(CO)cc(=O)oc3c2)cc1	3.1

molecular target: T2, Amine oxidase [flavin-containing] A (Homo sapiens, UniProt P21397); test: not given; settings: not given
T2 sequence (P21397 whole entry): T1 sequence (P21397 whole entry)

Compound	pIC50
Cc1c(C)c2ccc(OCC3CCN(Cc4cccc(C(F)(F)F)c4)CC3)cc2oc1=O	5.85
Cc1c(C)c2ccc(OCCCN(Cc3cccc(F)c3)C(C)C)cc2oc1=O	5.09

tested on: not listed separately; test: Apparent permeability across basolateral to apical side in human Caco-2 cells at 10 uM incubated for 60 mins by HPLC-MS/MS method; assay type: ADME, cell-based; settings: not given

Compound	Papp B→A at 1 h, 10 µM [×10⁻⁶ cm/s]
Cc1c(C)c2ccc(OCC3CCN(CCCC(F)F)CC3)cc2oc1=O	16

molecular target: T3, Amine oxidase [flavin-containing] B (Homo sapiens, UniProt P27338); test: Inhibition of human recombinant MAO-B expressed in supersomes assessed as inhibition of 4-hydroxyquinoline formation using kynuramine as substrate by spectrophotometric method; settings: not given
T3 sequence (P27338 whole entry): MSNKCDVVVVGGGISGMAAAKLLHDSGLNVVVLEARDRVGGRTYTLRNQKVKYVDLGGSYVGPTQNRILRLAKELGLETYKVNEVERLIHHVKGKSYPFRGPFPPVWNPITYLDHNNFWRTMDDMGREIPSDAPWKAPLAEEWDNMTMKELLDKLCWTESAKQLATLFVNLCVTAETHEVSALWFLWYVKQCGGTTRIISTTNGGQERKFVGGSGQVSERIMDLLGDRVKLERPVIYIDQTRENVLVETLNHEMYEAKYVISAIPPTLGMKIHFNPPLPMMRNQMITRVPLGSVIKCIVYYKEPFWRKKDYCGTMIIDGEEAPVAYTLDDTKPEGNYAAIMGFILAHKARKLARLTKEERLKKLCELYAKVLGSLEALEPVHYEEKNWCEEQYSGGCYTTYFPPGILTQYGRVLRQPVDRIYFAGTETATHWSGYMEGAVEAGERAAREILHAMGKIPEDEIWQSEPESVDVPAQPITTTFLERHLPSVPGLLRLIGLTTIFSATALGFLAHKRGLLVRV

Compound	inhibition (INH)
Cc1c(C)c2ccc(OCCCN(Cc3cccc(F)c3)C(C)C)cc2oc1=O	Active

molecular target: Acetylcholinesterase (Homo sapiens, UniProt P22303); test: not given; settings: not given
Sequence (P22303 whole entry): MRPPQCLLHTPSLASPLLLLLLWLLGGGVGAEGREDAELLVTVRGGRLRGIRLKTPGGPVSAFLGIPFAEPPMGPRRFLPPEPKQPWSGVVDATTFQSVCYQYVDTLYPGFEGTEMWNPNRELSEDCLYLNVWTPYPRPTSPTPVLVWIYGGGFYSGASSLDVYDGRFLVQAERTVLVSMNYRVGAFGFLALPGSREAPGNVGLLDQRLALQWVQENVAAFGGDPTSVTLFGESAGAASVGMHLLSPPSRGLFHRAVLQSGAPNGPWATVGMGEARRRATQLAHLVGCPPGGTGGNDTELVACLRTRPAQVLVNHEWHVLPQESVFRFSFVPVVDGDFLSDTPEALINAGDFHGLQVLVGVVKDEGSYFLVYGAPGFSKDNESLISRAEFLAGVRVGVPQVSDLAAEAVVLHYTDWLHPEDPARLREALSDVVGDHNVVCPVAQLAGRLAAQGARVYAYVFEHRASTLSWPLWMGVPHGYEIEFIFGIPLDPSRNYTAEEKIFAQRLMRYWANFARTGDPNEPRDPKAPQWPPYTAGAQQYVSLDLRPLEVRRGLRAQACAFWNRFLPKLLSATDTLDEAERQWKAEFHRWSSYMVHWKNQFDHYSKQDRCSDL

Compound	pIC50
Cc1c(C)c2ccc(OCC3CCN(Cc4cccc(C(F)(F)F)c4)CC3)cc2oc1=O	6.33
Cc1c(C)c2ccc(OCC3CCN(CCCC(F)F)CC3)cc2oc1=O	5.92
Cc1c(C)c2ccc(OCCCN(Cc3cccc(F)c3)C(C)C)cc2oc1=O	6.04
CN(CCCO)Cc1ccc(COc2ccc3c(CO)cc(=O)oc3c2)cc1	5.66

tested on: not listed separately; test: Apparent permeability across apical to basolateral side in human Caco-2 cells at 10 uM incubated for 60 mins by HPLC-MS/MS method; assay type: ADME, cell-based; settings: not given

Compound	Papp A→B at 1 h, 10 µM [×10⁻⁶ cm/s]
Cc1c(C)c2ccc(OCC3CCN(CCCC(F)F)CC3)cc2oc1=O	17

tested on: not listed separately; test: Intrinsic clearance in human liver microsomes at 0.5 uM incubated upto 60 mins in presence of NADPH measured per mg protein by LC/MS/MS analysis; assay type: ADME, Microsome; settings: read-out: CLH

Compound	microsomal CLint at 0.5 µM [µL/min/mg]
Cc1c(C)c2ccc(OCC3CCN(CCCC(F)F)CC3)cc2oc1=O	14.1

tested on: not listed separately; test: Kinetic aqueous solubility of the compound in PBS incubated for 2 hrs under mild shaking at pH 7.4 by UV- vis spectrophotometric analysis; assay type: physicochemical; settings: read-out: Kinetic_solubility

Compound	solubility kinetic at 2 h [µM]
Cc1c(C)c2ccc(OCC3CCN(Cc4cccc(C(F)(F)F)c4)CC3)cc2oc1=O	0.9 (≈ 0.401 µg/mL)
Cc1c(C)c2ccc(OCC3CCN(CCCC(F)F)CC3)cc2oc1=O	448 (≈ 170 µg/mL)
Cc1c(C)c2ccc(OCCCN(Cc3cccc(F)c3)C(C)C)cc2oc1=O	13 (≈ 5.17 µg/mL)
CN(CCCO)Cc1ccc(COc2ccc3c(CO)cc(=O)oc3c2)cc1	> 500

tested on: not listed separately; test: Microsomal stability in human liver microsomes assessed as half life at 0.5 uM incubated upto 60 mins in presence of NADPH by LC/MS/MS analysis; assay type: ADME, Microsome; settings: not given

Compound	half-life at 0.5 µM [min]
Cc1c(C)c2ccc(OCC3CCN(CCCC(F)F)CC3)cc2oc1=O	98.9

tested on: not listed separately; test: Efflux ratio of apparent permeability across basolateral to apical side over apical to basolateral side in human Caco-2 cells; assay type: ADME, cell-based; settings: not given

Compound	efflux ratio
Cc1c(C)c2ccc(OCC3CCN(CCCC(F)F)CC3)cc2oc1=O	1

tested on: not listed separately; test: Intrinsic clearance in mouse liver microsomes at 0.5 uM incubated upto 30 mins in presence of NADPH measured per mg protein by LC/MS/MS analysis; assay type: ADME, Microsome; settings: read-out: CLH

Compound	microsomal CLint at 0.5 µM [µL/min/mg]
Cc1c(C)c2ccc(OCC3CCN(Cc4cccc(C(F)(F)F)c4)CC3)cc2oc1=O	146
Cc1c(C)c2ccc(OCC3CCN(CCCC(F)F)CC3)cc2oc1=O	116

tested on: not listed separately; test: Chromatographic hydrophobicity index of the compound in ammonium acetate buffer at pH 7.4 by RP-HPLC analysis; assay type: physicochemical; settings: not given

Compound	CHI
Cc1c(C)c2ccc(OCC3CCN(Cc4cccc(C(F)(F)F)c4)CC3)cc2oc1=O	> 100
Cc1c(C)c2ccc(OCC3CCN(CCCC(F)F)CC3)cc2oc1=O	73.4
Cc1c(C)c2ccc(OCCCN(Cc3cccc(F)c3)C(C)C)cc2oc1=O	> 100
CN(CCCO)Cc1ccc(COc2ccc3c(CO)cc(=O)oc3c2)cc1	35.6

molecular target: Cytochrome P450 3A4 (Homo sapiens, UniProt P08684); test: Inhibition of human recombinant CYP3A4 expressed in baculosomes by fluorescent homogenous assay; assay type: ADME; settings: not given
Sequence (P08684 whole entry): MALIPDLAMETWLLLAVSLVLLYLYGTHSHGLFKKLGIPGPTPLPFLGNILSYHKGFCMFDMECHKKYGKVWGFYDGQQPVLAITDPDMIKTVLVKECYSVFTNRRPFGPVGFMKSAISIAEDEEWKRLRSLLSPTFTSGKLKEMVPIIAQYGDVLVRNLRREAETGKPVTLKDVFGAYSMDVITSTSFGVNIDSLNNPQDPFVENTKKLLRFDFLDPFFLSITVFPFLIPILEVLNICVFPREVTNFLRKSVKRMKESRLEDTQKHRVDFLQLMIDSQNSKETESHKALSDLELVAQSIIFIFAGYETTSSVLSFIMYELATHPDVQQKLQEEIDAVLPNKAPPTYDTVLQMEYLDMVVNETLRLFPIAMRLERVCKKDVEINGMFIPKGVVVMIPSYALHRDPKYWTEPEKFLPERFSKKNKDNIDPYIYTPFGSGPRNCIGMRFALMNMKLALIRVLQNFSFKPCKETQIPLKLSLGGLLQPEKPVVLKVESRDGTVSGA

Compound	pIC50
Cc1c(C)c2ccc(OCC3CCN(CCCC(F)F)CC3)cc2oc1=O	6.10

tested on: not listed separately; test: 1-Octanol/PBS buffer distribution coefficient, log D of the compound at 1 uM measured after 24 hrs at pH 7.4 by shake flask based HPLC-ES-MS/MS analysis; assay type: physicochemical; settings: not given

Compound	logD at 24 h, 1 µM
Cc1c(C)c2ccc(OCC3CCN(Cc4cccc(C(F)(F)F)c4)CC3)cc2oc1=O	5.05
Cc1c(C)c2ccc(OCC3CCN(CCCC(F)F)CC3)cc2oc1=O	2.34

molecular target: T3, Amine oxidase [flavin-containing] B; test: not given; settings: not given

Compound	pIC50
Cc1c(C)c2ccc(OCC3CCN(Cc4cccc(C(F)(F)F)c4)CC3)cc2oc1=O	6.89
Cc1c(C)c2ccc(OCC3CCN(CCCC(F)F)CC3)cc2oc1=O	6.28
Cc1c(C)c2ccc(OCCCN(Cc3cccc(F)c3)C(C)C)cc2oc1=O	6.46
CN(CCCO)Cc1ccc(COc2ccc3c(CO)cc(=O)oc3c2)cc1	6.38
